From patent publication US4080449A, “1,2,4,5-Tetrahydro-3H-2-benzazepin-3-ones” (U C B, Societe Anonyme, priority 1976, dated 1978)
Where “and” joins values, the source holds several entries; their conditions need not be identical. Identical values can stand only once.

How the values were obtained:
[1] = pharmacological properties of the compounds according to the present invention (Table III footnote, test not specified); type: in vivo
[2] = LD50 determined intraperitoneally in the rat (Spearman-Karber); details: in vivo, ip, intraperitoneal
Method: The LD50 doses were determined intraperitoneally in the rat and calculated by using the method of Spearman-Karber (D. J. Finney, Statistical Methods in Biological Assay, pub. Griffin & Co., London, 1952, p. 524).

[3] = system: spinal fixation time; experiment: spinal fixation test (elementary model of memory) after unilateral cerebellar lesion; type: in vivo; details: rat, i.p., 0.1 mmole/kg (A 17.5, B 22, C 23.7 mg/kg); spinal section 35 minutes after onset of asymmetry
From the text: Action on the mnemic processes is shown particularly by the reduction in the time for spinal fixation, a test which has been described in the literature (see C. Giurgea and F. Mouravieff-Lesuisse, Arch. Int. Pharmacodyn, 191/2, (1971), 279) as an elementary model of memory which is endowed with a pharmacological reactivity in good correlation with clinical physiopathology. In the rat, after unilateral lesion of the cerebellum, there is a postural asymmetry of the hind paws. This asymmetry may persist, even after spinal section, if the animal has been in this situation for a sufficiently long time. This time, which is called the spinal fixation time, is 45 minutes under the experimental conditions. On the other hand, if spinal section is performed before the expiry of this period, for example 35 minutes after the onset of the asymmetry, the latter disappears. […] Conversely, any product which allows the rats to retain the asymmetry (thus achieving spinal fixation) when the spinal section is carried out after 35 minutes, is regarded as being active.
Under these conditions, administration of a compound according to the present invention, for example 2-methyl-1,2,4,5-tetrahydro-3H-2-benzazepin-3-one (compound A), 2-carbamoylmethyl-1,2,4,5-tetrahydro-3H-2-benzazepin-3-one (compound B) and 5-phenyl-1,2,4,5-tetrahydro-3H-2-benzazepin-3-one (compound C) produces the following effects: […]

[4] = system: withdrawal reaction of a rat's paw; experiment: active avoidance test (memory retention, paw pressure withdrawal); type: in vivo; details: for Stimulus initiating the avoidance reaction 24 hours after the first stimulation: s.c.; for minimal effective dose: sc, minimum dose which lowers the stimulus to below 110 g
From the text: The principle of the active avoidance test, which has been developed in our laboratories and used for this purpose, may be described as follows: the withdrawal reaction of a rat's paw subjected to an increasing and measured pressure is observed. The pressure at which the withdrawal reaction is produced is called the reaction threshold. The latter is expressed in grams and thus corresponds to the minimum pressure which, when applied to the paw of the animals, causes withdrawal. It is read off directly from a scale of the apparatus used. […] Use is made of a minimum of 20 rats per test (10 treated rats and 10 control rats), the active dose being defined as the minimum dose which lowers the stimulus to below 110 g.

[5] = system: lethality induced by a curarizing agent, oxydipentonium chloride (Brevatonal); experiment: Brevatonal test (protection against lethality induced by oxydipentonium chloride, hypoxia); type: in vivo; details: mice, i.p.
Method: At the doses used, this curarizing agent brings about a respiratory depression which, in turn, brings about a hypoxi-hypercapnic syndrome. A compound capable of protecting the brain during this short period of hypoxia ensures survival. The compounds are administered to groups of 10 mice one hour before the injection of the curarizing agent; concurrently herewith, a control group of 10 mice is given a physiological salt solution prior to the curarizing agent. For each compound, the proportion of surviving mice is compared with the proportion of surviving control mice by the "Fisher exact probability test". This test, called the Brevatonal test, has also been developed in our laboratories.
Intraperitoneal administration (i.p.) of compounds according to the present invention, namely, 2-methyl-1,2,4,5-tetrahydro-3H-2-benzazepin-3-one (compound A), 2,4-dimethyl-1,2,4,5-tetrahydro-3H-2-benzazepin-3-one (compound G), 2-isobutyl-4-methyl-1,2,4,5-tetrahydro-3H-2-benzazepin-3-one(compound H), 7-chloro-2-methyl-1,2,4,5-tetrahydro-3H-2-benzazepin-3-one (compound J) 8-chloro-2-methyl-1,2,4,5-tetrahydro-3H-2-benzazepin-3-one (compound K) and 8-methyl-2-pentyl-1,2,4,5-tetrahydro-3H-2-benzazepin-3-one (compound L), produces under these conditions the effects set out in the following Table II.

[6] = system: spinal fixation time; details: rat, 30 mg/kg (0.2 millimole/kg), same conditions; C. Giurgea and F. Mouravieff-Lesuisse, loc.cit.; cited from earlier work
[7] = 0.175 mg/kg, control (0 mg/kg) A 164, F 154
[8] = 2 mg/kg (0.01 mmole/kg), control G 1/10, H 2/10

O=C1CCc2ccccc2CN1 [1,2,4,5-tetrahydro-3H-2-benzazepin-3-one]
pharmacological properties of the compounds according to the present invention [1]: does not have th

CN1Cc2ccccc2CCC1=O [A, 2-methyl-1,2,4,5-tetrahydro-3H-2-benzazepin-3-one]
LD50 [2]: 760 mg/kg
spinal fixation after 35 minutes (animals with fixation) [3]: three animals out of five
Stimulus initiating the avoidance reaction 24 hours after the first stimulation ([4]; 0.09 mg/kg, control (0 mg/kg) 164): 146 g
Stimulus initiating the avoidance reaction 24 hours after the first stimulation [4, 7]: 106 g
minimal effective dose [4]: 0.175 mg/kg and 1 µmol/kg
Fisher exact probability ([5]; 55 mg/kg (0.32 mmole/kg)): < 0.005
Proportion of survivors, treated animals ([5]; 55 mg/kg (0.32 mmole/kg), control 0/10): 7/10

NC(=O)CN1Cc2ccccc2CCC1=O [B, 2-carbamoylmethyl-1,2,4,5-tetrahydro-3H-2-benzazepin-3-one]
spinal fixation after 35 minutes (animals with fixation) [3]: two animals out of four

O=C1CC(c2ccccc2)c2ccccc2CN1 (stereo not shown) [C, 5-phenyl-1,2,4,5-tetrahydro-3H-2-benzazepin-3-one]
spinal fixation after 35 minutes (animals with fixation) [3]: four animals out of five

COc1ccc2c(c1)CCC(=O)N(C)C2 [D, 7-methoxy-2-methyl-1,2,4,5-tetrahydro-3H-2-benzazepin-3-one]
Stimulus initiating the avoidance reaction 24 hours after the first stimulation ([4]; 0.205 mg/kg, control (0 mg/kg) 165): 118 g
Stimulus initiating the avoidance reaction 24 hours after the first stimulation ([4]; 1 mg/kg, control (0 mg/kg) 165): 90 g
minimal effective dose [4]: 1 mg/kg and 5 µmol/kg

CCCCCN1Cc2ccccc2CC(C)C1=O (stereo not shown) [E, 4-methyl-2-pentyl-1,2,4,5-tetrahydro-3H-2-benzazepin-3-one]
Stimulus initiating the avoidance reaction 24 hours after the first stimulation ([4]; 0.24 mg/kg, control (0 mg/kg) 166): 122 g
Stimulus initiating the avoidance reaction 24 hours after the first stimulation ([4]; 0.49 mg/kg, control (0 mg/kg) 166): 89 g
minimal effective dose [4]: 0.49 mg/kg and 2 µmol/kg

Cc1ccc2c(c1)CNC(=O)CC2 [F, 8-methyl-1,2,4,5-tetrahydro-3H-2-benzazepin-3-one]
Stimulus initiating the avoidance reaction 24 hours after the first stimulation [4, 7]: 121 g
Stimulus initiating the avoidance reaction 24 hours after the first stimulation ([4]; 0.35 mg/kg, control (0 mg/kg) 154): 111 g
Stimulus initiating the avoidance reaction 24 hours after the first stimulation ([4]; 0.87 mg/kg, control (0 mg/kg) 154): 101 g
minimal effective dose [4]: 0.87 mg/kg and 5 µmol/kg

CC1Cc2ccccc2CN(C)C1=O (stereo not shown) [G, 2,4-dimethyl-1,2,4,5-tetrahydro-3H-2-benzazepin-3-one]
Fisher exact probability ([5]; 2 mg/kg (0.01 mmole/kg)): < 0.05
Proportion of survivors, treated animals [5, 8]: 6/10

CC(C)CN1Cc2ccccc2CC(C)C1=O (stereo not shown) [H, 2-isobutyl-4-methyl-1,2,4,5-tetrahydro-3H-2-benzazepin-3-one]
Fisher exact probability ([5]; 2 mg/kg (0.01 mmole/kg)): < 0.005
Proportion of survivors, treated animals [5, 8]: 9/10
Fisher exact probability ([5]; 7 mg/kg (0.032 mmole/kg)): < 0.05
Proportion of survivors, treated animals ([5]; 7 mg/kg (0.032 mmole/kg), control 2/10): 7/10
Fisher exact probability ([5]; 23 mg/kg (0.1 mmole/kg)): < 0.001
Proportion of survivors, treated animals ([5]; 23 mg/kg (0.1 mmole/kg), control 1/10): 9/10

CN1Cc2ccc(Cl)cc2CCC1=O [J, 7-chloro-2-methyl-1,2,4,5-tetrahydro-3H-2-benzazepin-3-one]
Fisher exact probability ([5]; 21 mg/kg (0.1 mmole/kg)): < 0.01
Proportion of survivors, treated animals ([5]; 21 mg/kg (0.1 mmole/kg), control 1/10): 7/10
Fisher exact probability ([5]; 66 mg/kg (0.32 mmole/kg)): < 0.005
Proportion of survivors, treated animals ([5]; 66 mg/kg (0.32 mmole/kg), control 1/10): 8/10

CN1Cc2cc(Cl)ccc2CCC1=O [K, 8-chloro-2-methyl-1,2,4,5-tetrahydro-3H-2-benzazepin-3-one]
Fisher exact probability ([5]; 21 mg/kg (0.12 mmole/kg as printed)): < 0.05
Proportion of survivors, treated animals ([5]; 21 mg/kg (0.12 mmole/kg as printed), control 1/10): 6/10
Fisher exact probability ([5]; 66 mg/kg (0.37 mmole/kg as printed)): < 0.05
Proportion of survivors, treated animals ([5]; 66 mg/kg (0.37 mmole/kg as printed), control 1/10): 6/10

CCCCCN1Cc2cc(C)ccc2CCC1=O [L, 8-methyl-2-pentyl-1,2,4,5-tetrahydro-3H-2-benzazepin-3-one]
Fisher exact probability ([5]; 78 mg/kg (0.32 mmole/kg)): < 0.05
Proportion of survivors, treated animals ([5]; 78 mg/kg (0.32 mmole/kg), control 0/5): 6/10

NC(=O)CN1CCCC1=O [piracetam, reference compound]
spinal fixation (animals with fixation) [6]: four animals out of nine
Stimulus initiating the avoidance reaction 24 hours after the first stimulation ([4]; 1.5 mg/kg, control (0 mg/kg) 153): 120 g
Stimulus initiating the avoidance reaction 24 hours after the first stimulation ([4]; 3.5 mg/kg, control (0 mg/kg) 153): 90 g
minimal effective dose [4]: 3.5 mg/kg and 25 µmol/kg
retention in active avoidance test ([4]; tested 24 hours later, versus control animals, dose not given in sentence): significant degree of retention
Fisher exact probability ([5]; 45 mg/kg (0.32 mmole/kg)): not significant
Proportion of survivors, treated animals ([5]; 45 mg/kg (0.32 mmole/kg), control 0/10): 1/10
Fisher exact probability ([5]; 142 mg/kg (1 mmole/kg)): not significant
Proportion of survivors, treated animals ([5]; 142 mg/kg (1 mmole/kg), control 2/10): 4/10
Fisher exact probability ([5]; 454 mg/kg (3.2 mmole/kg)): < 0.005
Proportion of survivors, treated animals ([5]; 454 mg/kg (3.2 mmole/kg), control 1/10): 8/10
